Several values for one entry are separate records, joined by “and”; a condition that tells them apart may be missing. Equal values may be shown once. Toxic doses and inconclusive results are not listed.

This note sets out measurements from PubChem BioAssay AID330 (DTP/NCI, 2004).

The assay has as its system P388 leukemia ip, CD2F1 mice, survival T/C. Put plainly: NCI In Vivo Anticancer Drug Screen. Data for tumor model P388 Leukemia (intraperitoneal) in CD2F1 (CDF1) mice. The conditions noted are these: endpoint: median survival time, higher = longer survival. The method, boiled down: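 Mice carrying the transplanted tumor received test compound or vehicle. Survival was recorded in each group, and the value is the treated-group measurement divided by that of the vehicle-treated control group.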

[1] abbreviates: dose: 50.0 mg/kg/injection, schedule: Q01DX005 (ip), vehicle: saline with Tween-80.
Setting [2] is: dose: 100.0 mg/kg/injection, schedule: Q01DX005 (ip), vehicle: saline with Tween-80.
The mark [3] stands for this setting: dose: 200.0 mg/kg/injection, schedule: Q01DX005 (ip), vehicle: saline with Tween-80.
Setting [4] is: dose: 25.0 mg/kg/injection, schedule: Q01DX009 (ip), vehicle: saline with Tween-80.
The mark [5] stands for this setting: dose: 50.0 mg/kg/injection, schedule: Q01DX009 (ip), vehicle: saline with Tween-80.
[6] abbreviates: dose: 100.0 mg/kg/injection, schedule: Q01DX009 (ip), vehicle: saline with Tween-80.
Setting [7] is: dose: 200.0 mg/kg/injection, schedule: Q01DX009 (ip), vehicle: saline with Tween-80.
[8] abbreviates: dose: 400.0 mg/kg/injection, schedule: Q01DX009 (ip), vehicle: saline with Tween-80.

Consider `Cc1ccc2nc3c(nc2c1)n(-c1ccccc1)c(=O)n3-c1cccc(Br)c1`, for which the T/C runs as follows: under setting [1], 88 % of control; under setting [2], 91 % of control; under setting [3], 100 % of control.

`Cc1cc(C)c2nc(C)c(C)[n+]([O-])c2c1`: the T/C under setting [1] was 101 % of control, the T/C under setting [2] is 100 % of control and the T/C under setting [3] was 100 % of control.

Take `NCCCN1c2ccccc2Sc2ccc(Cl)cc21`: the T/C under setting [4] was 99 % of control and 90 % of control; the T/C under setting [5] was 113 % of control and 120 % of control.

Take `O=C(O)c1ccc(N/N=C/C(F)(F)F)cc1`: the T/C is 96 % of control (dose: 60.0 mg/kg/injection, schedule: Q01DX005 (ip), vehicle: saline + Tween-80 + alcohol); 94 % of control (dose: 120.0 mg/kg/injection, schedule: Q01DX005 (ip), vehicle: saline + Tween-80 + alcohol); 102 % of control (dose: 240.0 mg/kg/injection, schedule: Q01DX005 (ip), vehicle: saline + Tween-80 + alcohol).

In the case of `ClCc1nnc2cccc(Cl)n12`, the T/C is 102 % of control (dose: 100.0 mg/kg/injection, schedule: Q01DX001 (ip), vehicle: Klucel (hydroxypropylcellulose) (HPC)); 96 % of control (dose: 200.0 mg/kg/injection, schedule: Q01DX001 (ip), vehicle: Klucel (hydroxypropylcellulose) (HPC)); 99 % of control (dose: 400.0 mg/kg/injection, schedule: Q01DX001 (ip), vehicle: Klucel (hydroxypropylcellulose) (HPC)).

Consider `Cc1cc(O)c(C(c2ccc(C#N)cc2)c2c(O)cc(C)[nH]c2=O)c(=O)[nH]1`, for which the T/C under setting [5] was 95 % of control, the T/C under setting [6] is 94 % of control and the T/C under setting [7] was 98 % of control.

Regarding `Cc1ccc(C(=O)C2(c3ccc(C)cc3)CCCCC2)cc1`, the T/C was 91 % of control (dose: 50.0 mg/kg/injection, schedule: Q04DX002 (ip), vehicle: Klucel (hydroxypropylcellulose) (HPC)); 90 % of control (dose: 100.0 mg/kg/injection, schedule: Q04DX002 (ip), vehicle: Klucel (hydroxypropylcellulose) (HPC)); 95 % of control (dose: 200.0 mg/kg/injection, schedule: Q04DX002 (ip), vehicle: Klucel (hydroxypropylcellulose) (HPC)); 91 % of control (dose: 400.0 mg/kg/injection, schedule: Q04DX002 (ip), vehicle: Klucel (hydroxypropylcellulose) (HPC)).

Turning to `CCn1c2ccc([N+](=O)[O-])cc2c2c([N+](=O)[O-])c(N)ccc21`, the T/C was 92 % of control under setting [1], 87 % of control under setting [2] and 90 % of control under setting [3].

Take `COc1c2occc2c(S(N)(=O)=O)c2ccc(=O)oc12`: the T/C under setting [4] is 106 % of control, the T/C under setting [5] is 103 % of control and the T/C under setting [6] was 106 % of control.

`CC1(C)CC2(OC2c2ccccc2[N+](=O)[O-])C(=O)c2ccccc21` (stereo not given): the T/C runs as follows: under setting [6], 100 % of control; under setting [7], 100 % of control; under setting [8], 100 % of control.

Turning to `Cc1coc2c1CCC(C)C2` (stereo not given), the T/C (dose: 12.5 mg/kg/injection, schedule: Q01DX009 (ip), vehicle: saline with Tween-80) was 92 % of control; the T/C under setting [4] is 107 % of control; the T/C under setting [5] is 100 % of control and 110 % of control.

In the case of `OCC#CCOCC(O)CCl` (stereo not given), the T/C was 103 % of control (dose: 12.5 mg/kg/injection, schedule: Q01DX009 (ip), vehicle: water); 108 % of control (dose: 25.0 mg/kg/injection, schedule: Q01DX009 (ip), vehicle: water); 107 % of control (dose: 50.0 mg/kg/injection, schedule: Q01DX009 (ip), vehicle: water); 98 % of control (dose: 100.0 mg/kg/injection, schedule: Q01DX009 (ip), vehicle: water); 103 % of control (dose: 200.0 mg/kg/injection, schedule: Q01DX009 (ip), vehicle: water).

`COC(=O)[C@@H]1[C@H]2CC(C)(C)C[C@H]2C2=CCC[C@@H]21`: the T/C by setting is: (dose: 18.5 mg/kg/injection, schedule: Q01DX005 (ip), vehicle: suspension in saline) 96 % of control; (dose: 37.0 mg/kg/injection, schedule: Q01DX005 (ip), vehicle: suspension in saline) 98 % of control; (dose: 74.0 mg/kg/injection, schedule: Q01DX005 (ip), vehicle: suspension in saline) 98 % of control.

For `C=C1C(=O)OC2/C=C(\C)CC/C=C(\C(=O)O)CC/C=C(/C)CCC12` (stereo not given), the T/C by setting is: (dose: 5.0 mg/kg/injection, schedule: Q01DX005 (ip), vehicle: Klucel (hydroxypropylcellulose) (HPC)) 100 % of control; (dose: 10.0 mg/kg/injection, schedule: Q01DX005 (ip), vehicle: Klucel (hydroxypropylcellulose) (HPC)) 117 % of control; (dose: 20.0 mg/kg/injection, schedule: Q01DX005 (ip), vehicle: Klucel (hydroxypropylcellulose) (HPC)) 118 % of control; (dose: 40.0 mg/kg/injection, schedule: Q01DX005 (ip), vehicle: Klucel (hydroxypropylcellulose) (HPC)) 115 % of control; (dose: 80.0 mg/kg/injection, schedule: Q01DX005 (ip), vehicle: Klucel (hydroxypropylcellulose) (HPC)) 115 % of control.

Consider `Oc1[nH]c2ccccc2c1N=Nc1nnc(-c2ccccc2)c(-c2ccccc2)n1`, for which the T/C runs as follows: under setting [1], 95 % of control; under setting [2], 107 % of control; under setting [3], 101 % of control.

In the case of `CCOC(=O)c1sc(SC)c2c(N)nc(C)nc12`, the T/C runs as follows: under setting [1], 98 % of control; under setting [2], 94 % of control; under setting [3], 95 % of control.

`COc1cc2cnc(-c3ccccc3)c(O)c2cc1OC`: the T/C (dose: 100.0 mg/kg/injection, schedule: Q04DX003 (ip), vehicle: suspension in saline) was 98 % of control; the T/C (dose: 200.0 mg/kg/injection, schedule: Q04DX003 (ip), vehicle: suspension in saline) is 94 % of control; the T/C (dose: 400.0 mg/kg/injection, schedule: Q04DX003 (ip), vehicle: suspension in saline) is 94 % of control.

`C(=NCCSSCCN=Cc1ccccc1)c1ccccc1`: the T/C (dose: 60.0 mg/kg/injection, schedule: Q01DX005 (ip), vehicle: saline with Tween-80) was 93 % of control; the T/C (dose: 120.0 mg/kg/injection, schedule: Q01DX005 (ip), vehicle: saline with Tween-80) was 93 % of control; the T/C (dose: 240.0 mg/kg/injection, schedule: Q01DX005 (ip), vehicle: saline with Tween-80) was 103 % of control.

With `c1ccc(-c2nnc(-c3ccccc3)c3c2nn2ccc4ccccc4c32)cc1`, the T/C was 90 % of control (dose: 100.0 mg/kg/injection, schedule: Q01DX001 (ip), vehicle: saline with Tween-80); 89 % of control (dose: 200.0 mg/kg/injection, schedule: Q01DX001 (ip), vehicle: saline with Tween-80); 103 % of control (dose: 400.0 mg/kg/injection, schedule: Q01DX001 (ip), vehicle: saline with Tween-80).

On to `O=C(/C=C/c1ccc([N+](=O)[O-])cc1)NN=C(c1ccccc1)c1ccccc1`, for which the T/C is, setting by setting: under setting [5], 106 % of control and 96 % of control; under setting [6], 99 % of control and 91 % of control; under setting [7], 98 % of control; under setting [8], 99 % of control.

Turning to `O=C(O)C1CCC=CCC1`, the T/C reads like this: (dose: 50.0 mg/kg/injection, schedule: Q01DX009 (ip), vehicle: other) 100 % of control; (dose: 100.0 mg/kg/injection, schedule: Q01DX009 (ip), vehicle: other) 104 % of control; (dose: 200.0 mg/kg/injection, schedule: Q01DX009 (ip), vehicle: other) 100 % of control.

Take `O=C(NP(=O)(N1CC1)N1CC1)c1cc(I)ccc1I`: the T/C (dose: 4.0 mg/kg/injection, schedule: Q01DX005 (ip), vehicle: suspension in saline) is 122 % of control; the T/C (dose: 4.0 mg/kg/injection, schedule: Q01DX005 (iv), vehicle: suspension in saline) was 107 % of control; the T/C (dose: 8.0 mg/kg/injection, schedule: Q01DX005 (iv), vehicle: suspension in saline) was 112 % of control; the T/C (dose: 16.0 mg/kg/injection, schedule: Q01DX005 (ip), vehicle: suspension in saline) is 165 % of control; the T/C (dose: 16.0 mg/kg/injection, schedule: Q01DX005 (iv), vehicle: suspension in saline) is 122 % of control; the T/C (dose: 32.0 mg/kg/injection, schedule: Q01DX005 (ip), vehicle: suspension in saline) was 190 % of control. Moreover, where the note is “dose: 64.0 mg/kg/injection, schedule: Q01DX005 (ip), vehicle: suspension in saline”, the T/C was 192 % of control.

`CC(=O)Oc1cc(C)cc2ccc(-c3ccc4cc(C)cc(OC(C)=O)c4c3OC(C)=O)c(OC(C)=O)c12`: the T/C is, setting by setting: (dose: 50.0 mg/kg/injection, schedule: Q01DX009 (ip), vehicle: Klucel (hydroxypropylcellulose) (HPC)) 96 % of control; (dose: 100.0 mg/kg/injection, schedule: Q01DX009 (ip), vehicle: Klucel (hydroxypropylcellulose) (HPC)) 96 % of control; (dose: 200.0 mg/kg/injection, schedule: Q01DX009 (ip), vehicle: Klucel (hydroxypropylcellulose) (HPC)) 96 % of control.

As to `C[CH2][Sn]1([CH2]C)[c]2ccccc2Oc2cccc[c]21`, the T/C reads like this: under setting [5], 109 % of control; under setting [6], 109 % of control.
